Laboratory results from article PMC11784145, “Efficacy and in vitro pharmacological assessment of novel N-hydroxypyridinediones as hepatitis B virus ribonuclease H inhibitors” (Antimicrobial Agents and Chemotherapy, 2024).

How the values were obtained:
[1] = Solubility limit, turbidimetric assay; format: physicochemical; conditions: upper limit 200 µM
Protocol: Solubility limits were determined by a turbidimetric assay, as described ([27]), with the solubility limit being defined as the compound concentration where light scattering began to rise. Two or more replicate assays were performed for each compound at each pH on different days.

MDCK-MDR1 cells = experiment: MDCK-MDR1 permeability assay; format: in vitro ADME; conditions: MDCK-MDR1 cells, 10 µM compound, 2 h; actively effluxed if >2
Protocol: MDCK-MDR1 cells were seeded on 96-well, high protein binding immobilon-P membrane plates (Millipore Sigma) at 2.4 × 10^4 cells per well for 4 days. Media were then decanted, and the cells were equilibrated with Hanks balanced salt solution (HBSS) supplemented with 10 mM CaCl2 and 1 mM MgCl2 for 1 h. Compound (10 µM) was then added to the apical side to assess active transport and to the basolateral side to assess active efflux. The cells were incubated with compound for 2 h with shaking at 37°C. Samples (50 µL) were retrieved from the recipient wells and mixed with 150 µL acetonitrile (ACN) and internal standard (1:1 of 200 ng/mL chloridazon:enalapril). Samples were pelleted at 4,000 × g and the supernatant was analyzed by liquid-chromatography/tandem mass spectrometry (LCMS/MS) analyses. […]. Active efflux was determined by Papp B/A/Papp A/B.
Tight junction formation was assessed by lucifer yellow permeation immediately following sample retrieval. Briefly, lucifer yellow (10 µM) was added to the apical wells and HBSS was added to the basolateral wells for 1 h with shaking at 37°C, after which sample was collected from the basolateral side and read on a Biotek Synergy HTX multi-mode plate reader with 485/20 excitation and 520/20 emission filters defined by the Center Wavelength/band-pass values. The percent lucifer yellow fluorescence was determined by subtracting the HBSS relative fluorescent units (RFU) from the sample RFU and normalizing to the lucifer yellow positive control RFU. Lucifer yellow permeation was determined to be acceptable if ≤3%.

Microsome stability = format: in vitro ADME, human; conditions: human, microsomes
Protocol: Human liver microsomes (gender pooled, 50 individuals) were purchased from BioIVT and stored at −80°C until use. […] Reactions were initiated by addition of 1.2 mM NADPH. […] Microsomal proteins were pelleted at 4,000 × g and the supernatant was analyzed via LCMS/MS. […] The ln percent remaining values were plotted against time, the negative slope was taken (k), and compound half-life (t1/2) was determined using ln2/k. Intrinsic clearance (Clint [µL/min/mg]) was calculated by (V × ln2)/t1/2, where V is the incubation volume (µL) divided by the protein concentration in the reaction (mg) ([31]).

[2] = Parallel artificial membrane permeability assay (PAMPA); format: in vitro ADME; conditions: for Papp 4 (PAMPA): pH 7.4, replicate 4
Protocol: Compound Papp values were determined by normalizing the experimental compound absorbance to the compounds’ absorbances at equilibrium, membrane porosity, buffer volume, and time (s). Two or more replicate assays were obtained on separate days for each pH.

[3] = target: T1, human ribonuclease H1 (huRNase H1) (Homo sapiens, UniProt O60930); experiment: Human RNase H1 inhibition, fluorescent biochemical assay
T1 construct: made in house; host or cells: Escherichia coli
T1 sequence (O60930 1-286): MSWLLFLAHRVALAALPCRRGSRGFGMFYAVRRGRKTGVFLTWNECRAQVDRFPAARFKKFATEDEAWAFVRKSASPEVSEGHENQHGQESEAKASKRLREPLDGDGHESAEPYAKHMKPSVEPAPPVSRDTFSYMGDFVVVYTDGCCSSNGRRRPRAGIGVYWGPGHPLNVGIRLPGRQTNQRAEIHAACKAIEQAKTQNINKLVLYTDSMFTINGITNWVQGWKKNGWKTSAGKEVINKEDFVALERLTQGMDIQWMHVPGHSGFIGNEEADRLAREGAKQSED
Protocol: Recombinant human ribonuclease H1 (huRNase H1) was expressed in Escherichia coli and purified by nickel affinity chromatography, as described previously ([30]). […] The heteroduplex substrate was prepared, as described by Ponzar et al. ([30]). Reactions were initiated by the addition of MgCl2 (5 mM final) and were performed on a Biotek Synergy HTX multi-mode plate reader at 28°C.
Maximum rates of fluorescence increase were calculated using the Biotek Gen5 v3.15 software and percentage activity was determined for each compound concentration by subtracting rates from no enzyme reactions and normalizing to DMSO reactions. […] Reactions were performed at least three times on separate days.

HepDES19 cells = conditions: read-out: HepDES19 CC50; 72 h, MTS; highest concentration tested 100 µM; mean ± SD
[4] = system: HBV replication (HBV plus-polarity DNA strand); experiment: HBV replication inhibition, strand preferential qPCR in hepDES19 cells; format: cell-based, hepatitis B virus; conditions: for EC50: 72 h exposure, HBV plus-polarity strand suppression, highest concentration tested 100 µM, mean ± SD, read-out: HepDES19 EC50
Protocol: HBV replication inhibition was measured in hepDES19 cells following 72 h compound exposure without compound replenishment. EC50 values were determined by HBV plus-polarity strand suppression using a strand preferential qPCR assay, as described previously ([28]). Three or more replicate values were obtained on different days.

CYP2D6 = target: T2, CYP2D6 (Homo sapiens, UniProt P10635); experiment: Cytochrome P450 inhibition, Vivid 2D6 EOMCC Blue kit; format: in vitro ADME; conditions: dose-response 50 µM to 3 nM; mean ± SD
T2 construct: purchased Thermo Fisher Vivid 2D6 EOMCC Blue
Protocol: Compound inhibition of Cytochrome P (CYP) 3A4, 2C9, and 2D6 was determined using Vivid CYP450 screening kits (Thermo Fisher) according to the manufacturer’s instructions, as described previously ([27]). The kits employed were: Vivid 3A4 DBOMF Green, 2C9 BOMF Green, and 2D6 EOMCC Blue. Reactions were initiated by addition of the fluorophore-conjugated substrates with Vivid NADP^+ and were conducted at 37°C using either a Biotek Synergy HTX multi-mode plate reader with 485/20 nm excitation and 520/20 nm emission filters (green-fluorescent substrate), or a Tecan Spark plate reader with monochromator settings at 415/20 nm excitation and 460/20 nm emission (blue-fluorescent substrate) defined by the Center Wavelength/band-pass values. Substrate cleavage was detected every 60 s.
Compounds were initially screened against each enzyme at 10 µM and maximum rates of fluorescence in RFU were calculated using the Biotek Gen5 v3.11 software. Percent inhibition of experimental compound reactions was normalized to the rate to DMSO vehicle reactions. Positive controls used were: CYP3A4—ketoconazole (Sigma Aldrich), CYP2C9—sulfaphenazole (Cayman Chemical), and CYP2D6—quinidine (Fisher Scientific). Dose-response curves were generated for compounds that inhibited an enzyme by ≥50% using titrated concentrations of compound (50 µM to 3 nM) or 1% DMSO. IC50 values were determined using the four-parameter log[inhibitor] versus response algorithm in GraphPad Prism. Qualitative screens and dose-response curves were each performed in triplicate on different days.

[5] = pH 5 (fed simulated intestinal fluid)
[6] = pH 6.5 (fasted simulated intestinal fluid)

T2 sequence (P10635 whole entry): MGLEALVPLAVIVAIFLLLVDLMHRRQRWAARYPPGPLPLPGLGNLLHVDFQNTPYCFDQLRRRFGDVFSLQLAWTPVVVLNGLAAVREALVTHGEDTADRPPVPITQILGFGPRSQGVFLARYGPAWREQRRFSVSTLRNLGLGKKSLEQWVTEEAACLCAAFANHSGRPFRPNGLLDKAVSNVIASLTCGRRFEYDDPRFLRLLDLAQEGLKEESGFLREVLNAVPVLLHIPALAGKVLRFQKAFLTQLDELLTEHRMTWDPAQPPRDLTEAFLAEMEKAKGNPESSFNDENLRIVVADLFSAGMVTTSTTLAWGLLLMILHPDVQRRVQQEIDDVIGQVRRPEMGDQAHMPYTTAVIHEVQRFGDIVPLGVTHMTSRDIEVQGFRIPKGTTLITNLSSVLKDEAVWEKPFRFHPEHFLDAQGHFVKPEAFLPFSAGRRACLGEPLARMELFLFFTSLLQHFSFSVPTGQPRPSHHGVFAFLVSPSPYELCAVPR

SMILES | Average Sol (solubility limit) [1, 5] | Sol 1 (solubility limit) ([1]; pH 5, replicate 1) | Sol 2 (solubility limit) ([1]; pH 5, replicate 2) | Average Sol (solubility limit) [1, 6] | Sol 1 (solubility limit) ([1]; pH 6.5, replicate 1) | Sol 2 (solubility limit) ([1]; pH 6.5, replicate 2) | Average Sol (solubility limit) ([1]; pH 7.4 (DMEM-F12 with 10% FBS)) | Sol 1 (solubility limit) ([1]; pH 7.4, replicate 1) | Sol 2 (solubility limit) ([1]; pH 7.4, replicate 2) | Avg Papp (PAMPA) ([2]; FeSSIF pH 5) | Interpretation (PAMPA Papp) ([2]; FeSSIF pH 5) | Papp 1 (PAMPA) ([2]; FeSSIF pH 5, replicate 1) | Papp 2 (PAMPA) ([2]; FeSSIF pH 5, replicate 2) | Avg Papp (PAMPA) ([2]; pH 7.4) | Interpretation (PAMPA Papp) ([2]; pH 7.4) | Papp 1 (PAMPA) ([2]; pH 7.4, replicate 1) | Papp 2 (PAMPA) ([2]; pH 7.4, replicate 2) | Papp 3 (PAMPA) ([2]; pH 7.4, replicate 3) | CC50 (HepDES19 cells) | HepDES19 SI (CC50/EC50) [4] | also measured
CC(=NOCc1ccc(C)cc1)c1c(C)cc(=O)n(O)c1O [Compound 1462] | > 200 µM | > 200 µM | > 200 µM | > 200 µM | > 200 µM | > 200 µM | > 200 µM | > 200 µM | > 200 µM | 1.01e-05 cm/s | H (H: Papp > 1*10-6) | 1.47e-05 cm/s | 5.56e-06 cm/s | 1.44e-06 cm/s | H (H: Papp > 1*10-6) | 5.13e-07 cm/s | 9.71e-07 cm/s | 2.84e-06 cm/s | 33.1 ± 5.24 µM | 112 | Efflux Ratio (Papp B-A/A-B) (MDCK-MDR1 cells): 1.31; Clearance (intrinsic clearance, Clint) (Microsome stability): 34.8 µL/min/mg; Half-life (Microsome stability): >30 min; Selectivity of HBV replication inhibition over huRNase H1 (huRNase H1 IC50 versus HBV EC50) [3]: at least 10 fold; EC50 [4]: 295 ± 122 nM
CC(=NOCc1ccc(F)cc1F)c1c(C)cc(=O)n(O)c1O [Compound 1464] | > 200 µM | > 200 µM | > 200 µM | > 200 µM | > 200 µM | > 200 µM | > 200 µM | > 200 µM | > 200 µM | 3.62e-05 cm/s | H (H: Papp > 1*10-6) | 1.44e-05 cm/s | 5.01e-05 cm/s | 2.49e-06 cm/s | H (H: Papp > 1*10-6) | 2.62e-06 cm/s | 2.31e-06 cm/s | 2.3e-06 cm/s | 63.6 ± 27 µM | 281 | Sol 3 (solubility limit) ([1]; pH 5, replicate 3): > 200 µM; Efflux Ratio (Papp B-A/A-B) (MDCK-MDR1 cells): 1.04; Half-life (Microsome stability): >30 min; Papp 3 (PAMPA) ([2]; FeSSIF pH 5, replicate 3): 4.42e-05 cm/s; Papp 4 (PAMPA) [2]: 2.73e-06 cm/s; Selectivity of HBV replication inhibition over huRNase H1 (huRNase H1 IC50 versus HBV EC50) [3]: at least 10 fold; EC50 [4]: 188 ± 63 nM
CC(=NOCc1cccc(Br)c1)c1c(C)cc(=O)n(O)c1O [Compound 1621] | > 200 µM | > 200 µM | > 200 µM | > 200 µM | > 200 µM | > 200 µM | > 200 µM | > 200 µM | > 200 µM | 2.63e-05 cm/s | H (H: Papp > 1*10-6) | 3.17e-05 cm/s | 2.09e-05 cm/s | 4.53e-06 cm/s | H (H: Papp > 1*10-6) | 4.9e-07 cm/s | 4.47e-06 cm/s | 1.06e-05 cm/s | 78.5 ± 32.4 µM | 192 | IC50 (CYP2D6): 19.5 µM; Papp 4 (PAMPA) [2]: 4.88e-07 cm/s; Papp 5 (PAMPA) ([2]; pH 7.4, replicate 5): 6.7e-06 cm/s; Papp 6 (PAMPA) ([2]; pH 7.4, replicate 6): 4.44e-06 cm/s; EC50 [4]: 520 ± 330 nM
